We go through two compounds from paper PMC6736360, “P-Glycoprotein–Mediated Efflux Reduces the In Vivo Efficacy of a Therapeutic Targeting the Gastrointestinal Parasite Cryptosporidium” (The Journal of Infectious Diseases, 2019).

In brackets after ≈: the same amount, converted by molar mass. Entries after “also recorded” stand apart in the source; their conditions may differ. Where two headings read alike, the source gives them in different places. Where only a bound is given, the exact number is not on record here.

One series relates to Caco-2 cells. Put plainly: Caco-2 trans-well apparent permeability assay. It is filed as in vitro ADME. The conditions noted are these: Caco-2. As for the experimental part:
To initially characterize the permeability of BKIs 1294, 1369, and 1318, the software MedChem Designer (Simulations +, Lancaster, CA) was used to predict the Peff. The in vitro apparent permeability (Papp) was carried out by Absorption Systems LP (Exton, PA) with a Caco-2 trans-well assay. Caco-2 cells (clone C2BBe1) were obtained from American Type Culture Collection (Manassas, VA) were grown to confluence on collagen-coated, microporous membranes in 12-well assay plates. The permeability assay buffer was Hanks’ balanced salt solution (HBSS) containing 10 mM HEPES and 15 mM glucose at a pH of 7.4. The buffer in the receiver chamber also contained 1% bovine serum albumin. The dosing solution concentration was 5 µM BKI in assay buffer, and the cell monolayers were dosed on the apical side (A?B) or basolateral side (B?A) and incubated at 37°C with 5% CO2 in a humidified incubator. After 120 minutes, samples were taken from the donor and receiver chambers in duplicate. The Papp was calculated with equation (1) and the percent recovery with equation (2).
Papp = (dCr/dt) × Vr/(A × CA) (1)
Percent Recovery = 100 × ((Vr × Cr^final) + (Vd × Cd^final))/(Vd × […]) (2)
where dCr/dt is the slope of the cumulative concentration in the receiver compartment versus time in µM s^-1; Vr is the volume of the receiver compartment in cm^3; Vd is the volume of the donor compartment in cm^3; A is the area of the insert (1.13 cm^2 for 12-well); CA is the average of the nominal dosing concentration and the measured 120 minute donor concentration in µM; CN is the nominal concentration of the dosing solution in µM; Cr^final is the cumulative receiver concentration in µM at the end of the incubation period; Cd^final is the concentration of the donor in µM at the end of the incubation period.
To ensure no damage was inflicted to the cell monolayers during the flux period, lucifer yellow flux was also measured post-experimentally for each monolayer. To determine whether BKIs 1294, 1369, and 1318 were substrates of P-gp in vitro, P-gp efflux was characterized using the Caco-2 permeability assay protocol with a few modifications. The dosing solution concentration was 5 μM of BKI in the assay buffer +/- 1 μM valspodar. Cells were first pre-incubated for 30 minutes with HBSS containing +/- 1 μM valspodar. Cell monolayers were dosed on the apical side (A?B) or basolateral side (B?A), and incubated at 37°C with 5% CO2 in a humidified incubator. Samples were taken from the donor and receiver chambers at 120 minutes. Each determination was performed in duplicate.

Series [1] in a line: In vitro solubility at pH 2 and 6.5. It is filed as physicochemical. As to the method:
Figure 1. Structures, in vitro efficacy, and physicochemical properties of bumped kinase inhibitors (BKIs). […] Solubilities for each BKI were measured at pH 2 and 6.5, to represent the stomach and small intestinal environments, respectively. The human effective permeability (Peff) was predicted as described in Materials and Methods.

In another series the test system is Cryptosporidium parvum. Put plainly: C. parvum growth inhibition, nonpolarized HCT-8 coculture assay. The conditions noted are these: Cryptosporidium parvum. The format is cell-based. An excerpt: Information regarding C. parvum growth inhibition by BKIs, the hollow fiber model, liquid chromatography–tandem mass spectrometry (LC-MS/MS) methods, and the interferon γ (IFN-γ) knockout (KO) mouse model of C. parvum infection has been described in detail previously [[15], [20–23]]. Information on BKI permeability, LC-MS/MS quantification of elacridar, and quantification of Cryptosporidium by polymerase chain reaction analysis is described in the Supplementary Materials. Unless noted otherwise, statistical significance was determined with an unpaired Student t test, using a significance level of 0.05.
To evaluate the potential impact of P-gp efflux on BKI1318 in vitro efficacy, in vitro assays with polarized and nonpolarized HCT-8 cells were evaluated. The nonpolarized HCT-8 coculture assay to screen anti-Cryptosporidium drug candidates has been previously reported by us in detail. […] Based on the reported elacridar half maximal inhibitor concentration for the inhibition of P-gp, the P-gp activity was predicted to be reduced with both elacridar concentrations. […] Elacridar alone had no effect on C. parvum levels.

The subject of series [2] is C. parvum. The series can be described thus: Hollow fiber in vitro Cryptosporidium culture with polarized HCT-8 cells. It is filed as cell-based, Cryptosporidium parvum. As to the method:
C. parvum was cultured using a hollow fiber bioreactor modified for evaluation of potential chemotherapeutic compounds [[21–23]]. Briefly, the system used a 20-kD MWCO polysulfone fiber cartridge (FiberCell Systems, Frederick, MD). HCT-8 cells were grown on the outer surface of the fibers (extracapillary space), and reservoirs were used to provide nutrients to the cells. When the glucose concentration decreased to at least 2 g/L, the extracapillary space was inoculated with 10^6C. parvum (Iowa isolate, Bunch Grass Farms, Deary, ID). […] Compound concentration was reduced over time by the flow of medium through the extracapillary and intracapillary spaces. Samples were removed from the extracapillary space once per day for evaluation of parasite numbers.
C. parvum growth was determined by analysis of the amount of C. parvum 18S-rRNA present and compared to the HCT-8 18S-rRNA as previously described^3. Briefly this was performed by centrifugation at 14,000 x g for 5 min of 0.5 mL samples collected from the extracapillary space (ECS). The pellet was resuspended in 100 µL of iScript buffer and subject to 6-freeze/thaw cycles comprising 1 min in liquid nitrogen followed by 1.5 min at 70 °C. The lysate was collected by centrifugation at 16,162 x g for 5 min, and the RNA purified according to the manufacturer’s instructions (iScriptTM, RT-qPCR sample preparation kit, Bio-Rad Laboratories). C. parvum was enumerated by quantitating the Cp18S-rRNA using the following specific forward and reverse primers - Cp18S-995F: 5’-[…]-3’ and Cp18S-1206R: 5’-[…]-3’ and compared to the human Hs18S-rRNA using the following primer sets - Hs18S-F1373: 5’-[…]-3’ and Hs18S-R1561: 5’-[…]-3’. The amount of 18S-rRNA was determined using 5 ng samples by RT-qPCR as described the manufacturer instructions using a Luna Universal One-Step® RT-qPCR kit (New England Biologics) and a Quant Studio 6 Flex 44 instrument. The cell number is calculated from the CT means using a set of standards prepared from 10^4, 10^5, and 10^6 C. parvum oocysts and compared to 10^4, 10^5, and 10^6 HCT-8 cells.

For series [3], the system named is C. parvum. More on the design: method as in PMID 28329187. The conditions noted are these: previously published study; cited from earlier work.
Where [4] appears, read: pH 2, represents stomach, read-out: Solubility (pH 2).
Setting [5] is: HCT-8, in vitro, read-out: C. parvum EC50.

For the compound `CCOc1ccc2cc(-c3nn(CC4CCNCC4)c4ncnc(N)c34)ccc2n1` [BKI1318], the “A → B Papp, fold lower than BKI1369 and BKI1294” value with Caco-2 cells is “approximately 50 fold”. Besides, the solubility in series [1] (setting [4]) was greater than 100 µM; in series [1] (pH 6.5, represents small intestine, read-out: Solubility (pH 6.5)), 56 µM (≈ 22.6 µg/mL). Besides, the concentration giving a half-maximal response (EC50) came out at 3200 nM in the series with Cryptosporidium parvum (setting [5]) and 1600 ± 1500 nM in the series with Cryptosporidium parvum (nonpolarized HCT-8 cells, BKI1318 alone, read-out: EC50 (±standard error) against C. parvum). In the series on C. parvum [2] (hollow fiber model, compound alone, 80 µM once daily), the “Effect on C. parvum levels/growth” value is on record as “did not decrease; also recorded: no effect”. The “Effect on C. parvum levels with elacridar coadministered” value in the series on C. parvum [2] (hollow fiber model, elacridar coadministered) was “reduced C. parvum levels by an order of magnitude”. Moreover, in the series on C. parvum [2] (hollow fiber, 80 µM BKI1318 once daily plus 80 µM elacridar), the “Reduction in C. parvum levels with elacridar (80 µM) coadministered” value is “approximately 1 log”.

For `CCOc1ccc2cc(-c3nn(CC4CCN(C)CC4)c4ncnc(N)c34)ccc2n1` [BKI1369], the “C. parvum reduction in mouse model of cryptosporidiosis” value in the series with C. parvum [3] was greater than 2 log. In addition, the solubility in series [1] (setting [4]) is greater than 100 µM. Also, the EC50 in the series with Cryptosporidium parvum (setting [5]) was 2300 nM. The “Reduction of C. parvum levels over the course of the study” value with C. parvum [2] (hollow fiber model, polarized HCT-8 cells) was > 3 orders of magnitude.
